# Assay results as given in ChEMBL document CHEMBL1201862, “PubChem BioAssay data set” (2004).
# Active and inactive are the calls of the source.
# Assays:
# [1] = molecular target: T1, Type-1 angiotensin II receptor (Homo sapiens, UniProt P30556); assay: antagonism of angiotensin II type 1 receptor – cell-based, uHTS hits, selectivity assay for APJ receptor antagonist project, dose response (AID 463214); assay type: functional;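 note: antagonist potency against angiotensin II stimulated AT1 response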
# T1 sequence (P30556 whole entry): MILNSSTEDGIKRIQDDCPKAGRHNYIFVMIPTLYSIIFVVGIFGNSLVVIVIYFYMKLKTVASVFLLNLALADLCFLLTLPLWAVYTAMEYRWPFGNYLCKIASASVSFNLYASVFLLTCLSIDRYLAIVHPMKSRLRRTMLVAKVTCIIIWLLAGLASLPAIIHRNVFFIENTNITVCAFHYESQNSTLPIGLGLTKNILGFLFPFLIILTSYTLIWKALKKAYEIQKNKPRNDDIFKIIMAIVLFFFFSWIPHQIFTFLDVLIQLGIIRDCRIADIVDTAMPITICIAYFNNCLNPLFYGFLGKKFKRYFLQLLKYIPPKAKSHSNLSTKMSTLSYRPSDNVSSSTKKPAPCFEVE
# [2] = molecular target: Beta-galactosidase (Escherichia coli, UniProt Q8VNN2); assay: PubChem AID 485352; assay type: functional
# Chain of Beta-galactosidase (Q8VNN2 whole entry): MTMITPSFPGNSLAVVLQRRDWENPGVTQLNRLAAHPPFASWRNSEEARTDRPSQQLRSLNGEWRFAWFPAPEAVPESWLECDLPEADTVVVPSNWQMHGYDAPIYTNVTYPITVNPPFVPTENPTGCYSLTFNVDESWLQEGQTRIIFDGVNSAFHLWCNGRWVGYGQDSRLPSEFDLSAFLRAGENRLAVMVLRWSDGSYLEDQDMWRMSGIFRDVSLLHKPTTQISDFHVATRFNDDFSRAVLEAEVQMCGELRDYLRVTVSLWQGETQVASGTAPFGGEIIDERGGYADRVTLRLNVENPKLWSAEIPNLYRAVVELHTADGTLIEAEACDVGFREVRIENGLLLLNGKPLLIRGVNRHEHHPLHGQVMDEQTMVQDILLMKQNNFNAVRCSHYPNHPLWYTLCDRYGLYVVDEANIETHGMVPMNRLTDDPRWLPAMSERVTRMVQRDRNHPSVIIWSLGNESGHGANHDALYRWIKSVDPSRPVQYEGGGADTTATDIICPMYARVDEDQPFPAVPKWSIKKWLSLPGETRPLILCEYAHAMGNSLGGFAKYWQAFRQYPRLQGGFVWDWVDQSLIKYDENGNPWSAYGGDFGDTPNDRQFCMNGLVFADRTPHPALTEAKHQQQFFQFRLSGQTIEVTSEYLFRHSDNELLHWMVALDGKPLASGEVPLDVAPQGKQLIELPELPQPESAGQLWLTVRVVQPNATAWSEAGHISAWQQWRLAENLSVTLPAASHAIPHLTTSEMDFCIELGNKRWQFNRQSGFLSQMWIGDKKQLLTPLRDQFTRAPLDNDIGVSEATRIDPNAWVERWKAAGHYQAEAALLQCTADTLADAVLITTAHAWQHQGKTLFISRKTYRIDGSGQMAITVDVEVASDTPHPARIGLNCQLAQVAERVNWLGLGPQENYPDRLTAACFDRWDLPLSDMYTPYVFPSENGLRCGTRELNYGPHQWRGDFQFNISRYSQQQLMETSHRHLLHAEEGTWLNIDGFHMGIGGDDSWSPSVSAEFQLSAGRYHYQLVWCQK
# [3] = molecular target: Peroxisome proliferator-activated receptor gamma/Nuclear receptor coactivator 3 (Homo sapiens, UniProt P37231); assay: TR-FRET dose response biochemical High Throughput Screening assay for agonists of the steroid receptor coactivator 3 (SRC-3) recruitment by the peroxisome proliferator-activated receptor gamma (PPAR gamma): non-selective agonists. [Related pubchem assays: 1301 (Confirmation screen.), 1048 (Primary screen.)]; assay type: functional
# Chain of Peroxisome proliferator-activated receptor gamma/Nuclear receptor coactivator 3 (P37231 whole entry): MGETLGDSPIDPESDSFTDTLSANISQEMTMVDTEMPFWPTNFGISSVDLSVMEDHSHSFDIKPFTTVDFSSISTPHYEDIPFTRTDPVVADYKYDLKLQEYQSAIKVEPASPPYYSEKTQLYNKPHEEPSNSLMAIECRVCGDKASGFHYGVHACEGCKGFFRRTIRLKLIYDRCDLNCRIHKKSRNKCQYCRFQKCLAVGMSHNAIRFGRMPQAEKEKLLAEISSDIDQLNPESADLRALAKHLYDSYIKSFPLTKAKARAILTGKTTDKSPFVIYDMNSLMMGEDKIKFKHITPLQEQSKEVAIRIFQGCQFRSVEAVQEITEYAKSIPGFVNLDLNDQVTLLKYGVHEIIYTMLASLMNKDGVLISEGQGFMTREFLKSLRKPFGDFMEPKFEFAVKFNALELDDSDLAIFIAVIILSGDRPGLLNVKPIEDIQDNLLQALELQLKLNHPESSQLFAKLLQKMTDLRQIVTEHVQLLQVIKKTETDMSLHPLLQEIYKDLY
# Chain of Peroxisome proliferator-activated receptor gamma/Nuclear receptor coactivator 3 (Q9Y6Q9 whole entry, further chain): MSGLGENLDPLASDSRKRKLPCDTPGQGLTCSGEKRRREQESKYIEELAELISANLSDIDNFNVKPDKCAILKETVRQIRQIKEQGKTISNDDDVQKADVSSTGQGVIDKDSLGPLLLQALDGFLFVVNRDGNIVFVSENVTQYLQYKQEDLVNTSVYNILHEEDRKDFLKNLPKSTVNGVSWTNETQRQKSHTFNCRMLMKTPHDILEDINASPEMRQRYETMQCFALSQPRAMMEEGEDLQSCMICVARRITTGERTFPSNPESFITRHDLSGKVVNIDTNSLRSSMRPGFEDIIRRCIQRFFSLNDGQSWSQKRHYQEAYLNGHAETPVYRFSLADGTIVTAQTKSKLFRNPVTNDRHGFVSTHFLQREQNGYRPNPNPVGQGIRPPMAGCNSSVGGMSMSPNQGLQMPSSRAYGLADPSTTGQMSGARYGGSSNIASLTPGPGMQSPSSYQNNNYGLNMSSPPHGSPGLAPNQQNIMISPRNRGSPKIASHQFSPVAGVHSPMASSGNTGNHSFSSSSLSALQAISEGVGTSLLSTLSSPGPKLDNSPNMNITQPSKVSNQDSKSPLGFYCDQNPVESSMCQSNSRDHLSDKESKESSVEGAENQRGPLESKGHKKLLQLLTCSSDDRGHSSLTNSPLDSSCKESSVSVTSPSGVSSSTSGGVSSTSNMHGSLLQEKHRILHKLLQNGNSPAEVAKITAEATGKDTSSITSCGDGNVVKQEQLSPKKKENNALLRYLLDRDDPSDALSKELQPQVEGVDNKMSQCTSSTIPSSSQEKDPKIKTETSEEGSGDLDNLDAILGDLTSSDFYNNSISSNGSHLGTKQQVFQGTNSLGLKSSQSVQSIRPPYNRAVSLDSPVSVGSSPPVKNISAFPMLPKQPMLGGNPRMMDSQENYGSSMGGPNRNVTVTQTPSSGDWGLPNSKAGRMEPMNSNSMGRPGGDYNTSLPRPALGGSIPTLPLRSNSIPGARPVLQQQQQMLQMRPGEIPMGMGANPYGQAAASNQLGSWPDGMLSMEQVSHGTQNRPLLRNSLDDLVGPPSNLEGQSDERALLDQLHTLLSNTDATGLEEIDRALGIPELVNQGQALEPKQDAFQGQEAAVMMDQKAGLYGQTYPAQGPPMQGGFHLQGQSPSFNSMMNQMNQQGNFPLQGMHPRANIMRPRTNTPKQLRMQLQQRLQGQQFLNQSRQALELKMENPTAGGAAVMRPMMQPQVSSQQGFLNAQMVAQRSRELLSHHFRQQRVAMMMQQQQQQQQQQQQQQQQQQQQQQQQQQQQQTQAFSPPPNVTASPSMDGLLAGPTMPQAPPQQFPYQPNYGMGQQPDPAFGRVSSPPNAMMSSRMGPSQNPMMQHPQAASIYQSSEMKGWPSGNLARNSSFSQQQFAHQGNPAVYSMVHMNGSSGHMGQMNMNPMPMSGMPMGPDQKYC
# [4] = molecular target: Peroxisome proliferator-activated receptor gamma/Nuclear receptor coactivator 2 (Homo sapiens, UniProt P37231); assay: TR-FRET dose response biochemical High Throughput Screening assay for agonists of the steroid receptor coactivator 2 (SRC-2) recruitment by the peroxisome proliferator-activated receptor gamma (PPAR gamma): non-selective agonists. [Related pubchem assays: 1297, 1032 ]; assay type: functional
# [5] = molecular target: Peroxisome proliferator-activated receptor gamma/Nuclear receptor coactivator 1 (Homo sapiens, UniProt P37231); assay: TR-FRET dose response biochemical High Throughput Screening assay for agonists of the steroid receptor coactivator 1 (SRC-1) recruitment by the peroxisome proliferator-activated receptor gamma (PPAR gamma): non-selective agonists. [Related pubchem assays (depositor defined):AID1300, AID1808, AID504735, AID631]; assay type: protein assay
# Chain of Peroxisome proliferator-activated receptor gamma/Nuclear receptor coactivator 1 (P37231 whole entry): as the sequence (P37231 whole entry) above
# Chain of Peroxisome proliferator-activated receptor gamma/Nuclear receptor coactivator 1 (Q15788 whole entry, further chain): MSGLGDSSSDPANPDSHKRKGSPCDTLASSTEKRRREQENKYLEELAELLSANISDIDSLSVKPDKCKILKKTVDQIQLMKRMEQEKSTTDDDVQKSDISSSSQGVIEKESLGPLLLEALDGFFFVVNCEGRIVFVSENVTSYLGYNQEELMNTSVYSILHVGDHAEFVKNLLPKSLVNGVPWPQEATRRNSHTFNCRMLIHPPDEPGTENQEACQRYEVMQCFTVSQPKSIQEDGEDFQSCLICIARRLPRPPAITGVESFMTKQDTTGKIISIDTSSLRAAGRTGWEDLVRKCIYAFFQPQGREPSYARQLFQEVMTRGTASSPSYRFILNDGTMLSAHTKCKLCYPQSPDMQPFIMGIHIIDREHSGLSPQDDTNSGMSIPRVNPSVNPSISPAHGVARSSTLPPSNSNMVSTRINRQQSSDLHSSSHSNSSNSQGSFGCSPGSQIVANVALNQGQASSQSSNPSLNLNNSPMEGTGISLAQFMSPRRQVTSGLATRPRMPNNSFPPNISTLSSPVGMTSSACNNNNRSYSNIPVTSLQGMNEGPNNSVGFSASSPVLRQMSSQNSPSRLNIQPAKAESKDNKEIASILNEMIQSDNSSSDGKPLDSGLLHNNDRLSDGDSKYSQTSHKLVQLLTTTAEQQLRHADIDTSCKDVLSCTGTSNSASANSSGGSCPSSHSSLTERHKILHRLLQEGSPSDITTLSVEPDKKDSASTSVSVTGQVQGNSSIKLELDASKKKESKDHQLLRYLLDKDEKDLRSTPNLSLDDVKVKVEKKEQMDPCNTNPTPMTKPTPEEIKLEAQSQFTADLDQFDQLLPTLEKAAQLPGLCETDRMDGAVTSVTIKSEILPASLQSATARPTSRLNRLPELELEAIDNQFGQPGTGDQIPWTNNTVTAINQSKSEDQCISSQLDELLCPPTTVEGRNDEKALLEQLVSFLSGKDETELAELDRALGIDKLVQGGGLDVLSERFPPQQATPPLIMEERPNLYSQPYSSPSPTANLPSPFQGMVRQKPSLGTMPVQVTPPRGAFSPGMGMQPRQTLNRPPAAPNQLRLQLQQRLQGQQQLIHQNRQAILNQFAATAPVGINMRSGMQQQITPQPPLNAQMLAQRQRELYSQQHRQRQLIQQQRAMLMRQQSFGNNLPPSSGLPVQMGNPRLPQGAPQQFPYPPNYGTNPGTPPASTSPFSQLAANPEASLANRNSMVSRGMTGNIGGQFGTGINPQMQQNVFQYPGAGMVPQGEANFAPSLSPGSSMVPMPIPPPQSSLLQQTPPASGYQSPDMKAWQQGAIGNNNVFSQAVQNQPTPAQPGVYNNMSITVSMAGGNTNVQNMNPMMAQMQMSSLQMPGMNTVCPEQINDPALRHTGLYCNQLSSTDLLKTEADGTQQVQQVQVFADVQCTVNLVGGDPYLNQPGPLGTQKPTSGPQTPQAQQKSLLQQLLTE
# [6] = molecular target: T2, Adenosylmethionine-8-amino-7-oxononanoate aminotransferase (Mycobacterium tuberculosis, UniProt P9WQ81); assay: Mycobacterium tuberculosis BioA enzyme inhibitor Measured in Biochemical System Using Plate Reader - 2163-02_Inhibitor_Dose_CherryPick_Activity.; assay type: functional, Mycobacterium tuberculosis UT205
# T2 sequence (P9WQ81 whole entry): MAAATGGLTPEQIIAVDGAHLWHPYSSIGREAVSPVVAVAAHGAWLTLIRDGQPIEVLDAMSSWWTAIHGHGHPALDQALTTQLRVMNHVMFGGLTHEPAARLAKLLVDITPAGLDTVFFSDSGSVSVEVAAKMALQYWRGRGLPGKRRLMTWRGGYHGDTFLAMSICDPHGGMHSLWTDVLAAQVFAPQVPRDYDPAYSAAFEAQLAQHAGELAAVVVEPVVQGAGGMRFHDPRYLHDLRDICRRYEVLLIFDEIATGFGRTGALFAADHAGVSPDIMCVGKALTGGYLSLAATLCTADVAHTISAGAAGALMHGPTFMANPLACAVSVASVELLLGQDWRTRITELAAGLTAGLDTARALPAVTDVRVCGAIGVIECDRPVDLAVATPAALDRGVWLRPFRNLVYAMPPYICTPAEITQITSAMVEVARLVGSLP
# [7] = system: Vero; assay: cells; assay type: functional; details: Chlorocebus sabaeus
# [8] = system: HEK293; assay: cells; assay type: functional, cell-based; details: Homo sapiens
# [9] = system: HEK293; assay: NOD2 signaling inhibitors in MDP-stimulated cells, cell-based, uHTS, luminescence (AID 2001); assay type: functional; details: Homo sapiens
# [10] = system: HEK293; assay: inhibition of NOD1-driven NF-kB reporter – cell-based, luminescence, uHTS, primary screen (AID 1578); assay type: functional; details: Homo sapiens
# [11] = system: HEK293; assay: cells; assay type: functional, cell-based; details: Homo sapiens; remark: listed apart in the source
# [12] = molecular target: 72 kDa type IV collagenase (Homo sapiens, UniProt P08253); assay: Dose Response validation of uHTS RPN11 inhibitor hits using a MMP-2 Fluorescence assay.; assay type: functional
# [13] = molecular target: 26S proteasome non-ATPase regulatory subunit 14 (Homo sapiens, UniProt O00487); assay: inhibition of proteasome subunit RPN11 – biochemical, fluorescence polarization, uHTS hits, confirmation (AID 602368); assay type: functional
# [14] = molecular target: Prothrombin (Bos taurus, UniProt P00735); assay: thrombin protease inhibitors – biochemical, fluorescence polarization, uHTS hits, dose response (AID 602369); assay type: functional
# [15] = system: BJ; assay: BJ-TERT fibroblast viability loss – cell-based, RAS-independent, luminescence, dose response (AID 1933); assay type: functional; details: Homo sapiens
# [16] = DRD fibroblast viability loss – cell-based, non-viral oncogenic, luminescence, dose response (AID 1934); assay type: functional; details: Homo sapiens
# [17] = system: INS1; assay: INS-1E survival protection against cytokine death – cell-based, luminescence, retest, dose response (AID 449756); assay type: functional; details: Rattus norvegicus;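 note: cell death triggered by IL-1 beta plus TNF-alpha plus IFN-gamma mixture; protective hits raise ATP signal compared with cytokine alone wells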
# [18] = system: BJ; assay: cells; assay type: functional, cell-based; details: Homo sapiens
# [19] = system: BJ; assay: growth inhibition of engineered Ras-driven BJ cells – cell-based, alamar blue fluorescence, cherrypicked samples, dose response (AID 2631); assay type: functional; details: Homo sapiens;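 note: confirmatory dose-response assay in RAS-dependent BJ fibroblasts engineered with TERT, LT and ST, with cytotoxicity read by fluorescence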
# [20] = molecular target: Heat shock protein HSP 90-alpha (Homo sapiens, UniProt P07900); assay type: functional, organism-based
# [21] = system: BJ; assay: BJ-TERT-LT-ST fibroblast viability loss – cell-based, RAS-independent, luminescence, dose response (AID 1935); assay type: functional; details: Homo sapiens;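 note: BJ fibroblasts immortalized with TERT plus LT and ST oncogenes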
# [22] = molecular target: Protein Wnt-3a (Mus musculus, UniProt P27467); assay: antagonism of Wnt3a pathway luciferase reporter – Wnt-LIGHT cells, luminescence, selectivity assay for Gli-SUFU antagonist project, dose response (AID 651570); assay type: functional; details: read-out: IC50_Mean;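 note: Wnt-LIGHT reporter cells stimulated with conditioned medium from Wnt3a-producing cells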
# [23] = molecular target: T3, Corticotropin-releasing factor receptor 2/Corticotropin-releasing factor-binding protein (Homo sapiens, UniProt P24387+Q13324); assay: activators of CRF receptor 2 with binding protein – uHTS hits, confirmation (AID 602473); assay type: functional; details: read-out: EC50_Mean
# T3 sequence (Q13324 whole entry): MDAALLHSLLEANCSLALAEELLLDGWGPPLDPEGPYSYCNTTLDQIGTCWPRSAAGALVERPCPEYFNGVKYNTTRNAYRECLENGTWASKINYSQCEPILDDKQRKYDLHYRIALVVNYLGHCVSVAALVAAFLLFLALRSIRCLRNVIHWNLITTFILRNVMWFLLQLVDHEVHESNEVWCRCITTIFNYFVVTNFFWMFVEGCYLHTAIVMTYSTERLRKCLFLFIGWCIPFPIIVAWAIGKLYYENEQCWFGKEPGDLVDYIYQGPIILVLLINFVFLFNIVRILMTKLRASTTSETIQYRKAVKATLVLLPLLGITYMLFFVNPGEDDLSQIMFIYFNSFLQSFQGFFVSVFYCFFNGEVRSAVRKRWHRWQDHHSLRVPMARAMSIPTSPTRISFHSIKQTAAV
# T3 sequence (P24387 whole entry): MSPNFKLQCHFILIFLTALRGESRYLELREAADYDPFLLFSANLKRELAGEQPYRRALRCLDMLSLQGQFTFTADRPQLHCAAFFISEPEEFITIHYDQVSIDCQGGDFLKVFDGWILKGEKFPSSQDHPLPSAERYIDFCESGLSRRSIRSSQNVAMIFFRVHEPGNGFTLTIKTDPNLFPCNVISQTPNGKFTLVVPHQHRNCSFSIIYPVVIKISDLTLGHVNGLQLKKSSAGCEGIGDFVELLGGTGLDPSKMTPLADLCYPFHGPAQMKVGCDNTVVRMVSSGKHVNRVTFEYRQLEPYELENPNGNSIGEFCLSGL
# [24] = molecular target: G-protein coupled receptor 55 (Homo sapiens, UniProt Q9Y2T6); assay: selective activators of receptor GPR55 – imaging, U2OS cells, beta-arrestin-GFP redistribution, primary screen (AID 1961); assay type: functional
# [25] = fluconazole-exposed Candida albicans growth modulators – fluorescence, retest, confirmation (AID 2467); assay type: functional, cell-based
# [26] = NIH-3T3 fibroblast cytotoxicity, dose response, cytotoxicity control, cell-based, fluorescence, Alamar Blue, secondary assay (AID 2327); assay type: functional;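 note: NIH-3T3 mouse fibroblasts cultured with fluconazole at 8 µg/mL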
# [27] = system: SN12K1; assay: cells; assay type: functional; details: Homo sapiens
# [28] = viability of HCT116 lacking mutant beta-catenin – cell-based, human colon tumor, dose response (AID 1045); assay type: functional;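 note: HCT116 colon tumor cells with beta catenin knocked out; cells exposed to compound for 60 hours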
# [29] = molecular target: Cytochrome P450 2C9 (Homo sapiens, UniProt P11712)
# [30] = viability of PTEN-deleted HCT116 cells – cell-based, HCT116 PTEN knockout, dose response (AID 1047); assay type: functional;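 note: HCT116 colon tumor cells with PTEN knocked out; cells exposed to compound for 60 hours before readout; potency for loss of cell viability measured by luminescence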
# [31] = microbe, parasite or virus in culture; assay type: functional; details: Mycobacterium tuberculosis
# [32] = reduction of Shn3 3'UTR-driven luciferase in osteoblasts – cell-based, Clone20 osteoblasts, firefly luciferase, cherry-picked, dose response (AID 624132); assay type: functional;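 note: firefly luciferase luminescence from reporter carrying the Shn3 3'UTR in osteoblasts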
# [33] = non-specific 3'UTR reporter inhibition in Clone20-Shn3RL – cell-based, Renilla luciferase, cherry-picked, counter-screen for Shn3 inhibitor project, dose response (AID 624133); assay type: functional
structure (smiles),measurement,setting,value
O=C(OCC(=O)c1ccc(Cl)cc1Cl)c1ccccn1,IC50,[1],35.9 µM (not active)
same,EC50,[2],> 40 µM (inactive)
COc1ccc(NP(=O)(Oc2ccccc2OC)Oc2ccccc2OC)cc1,EC50,[3],> 79.4 µM (not active)
same,EC50,[4],> 79.4 µM (not active)
same,EC50,[5],> 79.4 µM (inactive)
CO[C@H]1CN(C)C(=O)c2ccc(NC(C)=O)cc2OC[C@@H](C)N(C(=O)c2ccc(F)cc2)C[C@H]1C,AC50,[6],11.5 µM (active)
Cc1ccc(OCC(=O)OCC(=O)c2cccc([N+](=O)[O-])c2)cc1C,IC50,[1],> 40 µM (not active)
same,EC50,[2],> 40 µM (inactive)
CC1CC(N(C(=O)c2ccc(Cl)cc2)c2ccccc2)c2ccccc2N1C(=O)c1ccco1 (configuration not stated),CC50,[7],15.1 µM (active)
CN(C)S(=O)(=O)c1ccc(C(=O)Nc2nc(-c3cc4ccccc4o3)cs2)cc1,IC50,[8],> 20 µM (inactive)
same,IC50,[9],2.85 µM (active)
same,EC50,[10],> 20 µM (inactive)
same,IC50,[11],3.09 µM (active)
Cc1csc(NC(=O)CSc2nc3sc(C)c(C)c3c(=O)[nH]2)n1,IC50,[12],> 100 µM (inactive)
same,IC50,[13],24.3 µM (active)
same,IC50,[14],43.6 µM (active)
O=C(CSc1nc2c(c(=O)n1-c1ccccc1)SCC2)N1CCN(c2ccccc2)CC1,AC50,[6],1.08 µM (active)
CCc1cc(=O)oc2cc(C)cc(O)c12,EC50,[3],> 79.4 µM (not active)
same,EC50,[4],21.1 µM (not active)
same,EC50,[5],> 79.4 µM (inactive)
CCn1c(=O)cc(SCC(=O)N2CCN(Cc3ccc4c(c3)OCO4)CC2)c2ccccc21,EC50,[3],> 79.4 µM (not active)
same,EC50,[4],> 79.4 µM (not active)
same,EC50,[5],> 79.4 µM (inactive)
Cc1ccc(/N=C/c2c(C)[nH]n(-c3nc4ccccc4[nH]3)c2=O)cc1,EC50,[15],2.84 µM (inconclusive)
same,EC50,[16],2.83 µM (active)
same,AC50,[17],1.42 µM (active)
same,EC50,[18],3.03 µM (active)
same,EC50,[19],> 133 µM (inactive)
same,AC50,[20],5.84 µM (active)
same,EC50,[21],3.62 µM (inconclusive)
CC(C)Cc1ccc(C(C)C(=O)Nc2cccnc2)cc1 (configuration not stated),IC50,[22],5.34 µM (active)
same,EC50,[23],> 53 µM (inactive)
COCCNC(=O)C[C@@H]1CC[C@@H]2[C@H](COc3ccc(NC(=O)Nc4cccc(F)c4)cc3C(=O)N2C)O1,AC50,[6],4.17 µM (active)
Cc1ccc(NS(=O)(=O)c2cc([N+](=O)[O-])ccc2N/N=C/c2sc(N3CCOCC3)nc2-c2ccccc2)c(C)c1,AC50,[17],4.62 µM (active)
same,IC50,[1],> 40 µM (not active)
same,EC50,[24],< 0.5 µM (active)
same,EC50,[2],> 40 µM (inactive)
O=C(CSc1nc2ccccc2c(=O)n1-c1ccccc1)N1CCN(CCO)CC1,AC50,[6],12.3 µM (active)
C[N+]1(CC(=O)OC2CCCCCCCCCCC2)CCCC1,EC50,[25],1.65 µM (active)
same,IC50,[22],28 µM (inactive)
same,EC50,[26],> 150 µM (inconclusive)
CC(NC(=O)C1CCN(C(=O)c2cccs2)CC1)c1ccc(S(N)(=O)=O)cc1 (configuration not stated),IC50,[12],> 100 µM (inactive)
same,IC50,[13],9.98 µM (active)
same,IC50,[14],> 100 µM (inactive)
COc1ccccc1C1C2=C(O)OCC2=Nc2cc3c(cc21)OCO3 (configuration not stated),EC50,[15],6.64 µM (inconclusive)
same,EC50,[16],9.6 µM (inconclusive)
same,EC50,[18],15.2 µM (inconclusive)
same,EC50,[19],< 0.104 µM (active)
same,EC50,[21],9.65 µM (inconclusive)
COc1cccc(N2[C@@H](CC(C)=O)c3ccc(/C=C/C(C)=O)cc3S2(=O)=O)c1,CC50,[7],17.9 µM (active)
c1ccc(CN2CCc3[nH]c4ccccc4c3C2)cc1,GI50,[27],15.2 µM (inactive)
CCCCC(=O)Nc1sc2c(c1C(=O)OCC)CCC(C=O)=C2Cl,EC50,[28],5.91 µM (active)
same,AC50,[29],7.94 µM (inconclusive)
same,EC50,[30],5.83 µM (active)
same,EC50,[24],> 32 µM (inactive)
same,CC50,[31],> 40 µM (active)
CCOc1ccc(CCNC(=O)CSc2cc(=O)n(C)c3ccccc23)cc1OCC,EC50,[3],> 79.4 µM (not active)
same,EC50,[4],> 79.4 µM (not active)
same,EC50,[5],> 79.4 µM (inactive)
CCC(CC)CN1C(N(C)C)=NC[C@@H]1CC(C)C,AC50,[32],0.717 µM (active)
same,AC50,[33],1.84 µM (active)
same,IC50,[22],5.72 µM (active)
